In US9113629B2, “4-amino-6-(4-substituted-phenyl)-picolinates and 6-amino-2-(4-substituted-phenyl)-pyrimidine-4-carboxylates and their use as herbicides” (DOW AGROSCIENCES LLC, priority 2013, dated 2015):
Where two headings read alike, the source gives them in different places.

What was measured:
[1] = test system: Key Broadleaf Weed and Crop Species; assay: Post-emergent Test II herbicidal activity (Table 5); format: in vivo; settings: post-emergence, 336 h, post-emergent, 14 days after application; for pest or weed control at 70 g/ha: 70 g ai/ha; for pest or weed control at 140 g/ha: 140 g ai/ha
Procedure, shortened: (§1)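 Plants grown in Metro-Mix 360 (pH 6.0–6.8) in a greenhouse (~15 h photoperiod, 23–29 °C day) to first or second true leaf stage, then sprayed with compound in acetone/DMSO/aqueous crop-oil-surfactant carrier at 187 L/ha by track sprayer. Injury visually scored 0–100% versus untreated plants after 14 d.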

[2] = test system: Key Grass and Sedge Weeds as well as Grass Crops; assay: Post-emergent Test II herbicidal activity (Table 6); format: in vivo; settings: post-emergence, 336 h; for pest or weed control at 70 g/ha: application rate 70 g ai/ha; for pest or weed control at 140 g/ha: application rate 140 g ai/ha
Procedure, shortened: as §1

[3] = ABUTH: velvetleaf (Abutilon theophrasti), read-out: Visual Growth Reduction (%) 14 Days After Application ABUTH
[4] = AMARE: redroot pigweed (Amaranthus retroflexus), read-out: Visual Growth Reduction (%) 14 Days After Application AMARE
[5] = BRSNN: oilseed-rape, canola (Brassica napus), read-out: Visual Growth Reduction (%) 14 Days After Application BRSNN
[6] = CHEAL: lambsquarters (Chenopodium album), read-out: Visual Growth Reduction (%) 14 Days After Application CHEAL
[7] = EPHHL: wild poinsettia (Euphorbia heterophylla), read-out: Visual Growth Reduction (%) 14 Days After Application EPHHL
[8] = HELAN: sunflower (Helianthus annuus), read-out: Visual Growth Reduction (%) 14 Days After Application HELAN
[9] = VIOTR: wild pansy (Viola tricolor), read-out: Visual Growth Reduction (%) 14 Days After Application VIOTR
[10] = CYPES: yellow nutsedge (Cyperus esculentus), read-out: Visual Growth Reduction (%) 14 Days After Application, CYPES
[11] = DIGSA: crabgrass (Digitaria sanguinalis), read-out: Visual Growth Reduction (%) 14 Days After Application, DIGSA
[12] = ECHCG: barnyardgrass (Echinochloa crus-galli), read-out: Visual Growth Reduction (%) 14 Days After Application, ECHCG
[13] = ORYSA: rice (Oryza sativa), read-out: Visual Growth Reduction (%) 14 Days After Application, ORYSA
[14] = SETFA: giant foxtail (Setaria faberi), read-out: Visual Growth Reduction (%) 14 Days After Application, SETFA
[15] = SORVU: grain sorghum (Sorghum vulgare), read-out: Visual Growth Reduction (%) 14 Days After Application, SORVU
[16] = TRZSS (wheat, Triticum aestivum), read-out: Visual Growth Reduction (%) 14 Days After Application, TRZSS
[17] = ZEAMX: maize, corn (Zea mays), read-out: Visual Growth Reduction (%) 14 Days After Application, ZEAMX

COC(=O)c1nc(-c2cc(F)c(C#N)cc2F)cc(N)c1Cl [Compound 202]
melting point: 209.7 to 211.9 °C
pest or weed control at 70 g/ha [1, 3]: 95 to 100%
pest or weed control at 140 g/ha [1, 3]: 95 to 100%
pest or weed control at 70 g/ha [1, 4]: 95 to 100%
pest or weed control at 140 g/ha [1, 4]: 95 to 100%
pest or weed control at 70 g/ha [1, 5]: 75 to 84%
pest or weed control at 140 g/ha [1, 5]: 85 to 94%
pest or weed control at 70 g/ha [1, 6]: 95 to 100%
pest or weed control at 140 g/ha [1, 6]: 95 to 100%
pest or weed control at 70 g/ha [1, 7]: 95 to 100%
pest or weed control at 140 g/ha [1, 7]: 95 to 100%
pest or weed control at 70 g/ha [1, 8]: 95 to 100%
pest or weed control at 140 g/ha [1, 8]: 95 to 100%
pest or weed control at 70 g/ha [1, 9]: 60 to 74%
pest or weed control at 140 g/ha [1, 9]: 60 to 74%
pest or weed control at 70 g/ha [2, 10]: 85 to 94%
pest or weed control at 140 g/ha [2, 10]: 85 to 94%
pest or weed control at 70 g/ha [2, 11]: 30 to 44%
pest or weed control at 140 g/ha [2, 11]: 60 to 74%
pest or weed control at 70 g/ha [2, 12]: 60 to 74%
pest or weed control at 140 g/ha [2, 12]: 95 to 100%
pest or weed control at 70 g/ha [2, 13]: 0 to 29%
pest or weed control at 140 g/ha [2, 13]: 0 to 29%
pest or weed control at 70 g/ha [2, 14]: 60 to 74%
pest or weed control at 140 g/ha [2, 14]: 60 to 74%
pest or weed control at 70 g/ha [2, 15]: 60 to 74%
pest or weed control at 140 g/ha [2, 15]: 85 to 94%
pest or weed control at 70 g/ha [2, 16]: 60 to 74%
pest or weed control at 140 g/ha [2, 16]: 75 to 84%
pest or weed control at 70 g/ha [2, 17]: 30 to 44%
pest or weed control at 140 g/ha [2, 17]: 45 to 59%
